# In patent US20250255847A1, “[…]s: Novel Drugs for Triple Negative Breast Cancer” (SIMMARON RSEARCH INC, priority 2024, published 2025):
# Target: T1, STAT3 (pY705, pS727) (Homo sapiens, UniProt P40763)
# T1 construct: endogenous in cells; host or cells: MDA-MB-468
# Test: JAK/STAT phospho antibody array, phospho-STAT3 in EGF-treated MDA-MB-468 cells
# Assay type: cell-based
# Conditions: EGF (25 ng) + 5 nM compound, 6 hrs
# Procedure: FIG. 5 illustrates an embodiment of the present invention and illustrates evaluations of SIM-1 and SIM-2 as STAT3 inhibitors. (A) Protein thermal shift assay was performed to assess the melting of purified recombinant STAT3 (blue; 0.5 μg protein) (Tm=melting temperature=68.88° C.). The representative melting curves were derived after adding SIM-1 (red; 4 nM), SIM-2 (purple; 8 nM), and positive control stattic (grey; 20 nM) to the STAT3 protein. The differences of melting temperature (ΔTm) between pure protein and protein+ligands are −4.54° C., −4.16° C., and 0.39° C. for SIM-1, SIM-2, and stattic (ΔTm^cut-off>2° C.). […] Each colored arrowhead represents a specific phosphoprotein, and the description was added in the bottom of array images. […] Similarly, full-length STAT5b protein melting was assessed with (J) SIM-1, (K) SIM-2, and (L) stattic. […]
# Protein array. […] After that, cells were scrapped with 1×TBS, lysed with lysis buffer supplemented with protease and phosphatase inhibitor cocktail, measured for total protein concentration ([…]), diluted 5 times with assay diluent buffer and then applied along with biotin-labeled probes on the glass membrane coated with antibodies. […]
# Next, the present invention evaluated if these compounds as disclosed in the present invention as small-molecule inhibitors targeting STAT3 activation, inhibited the activation of STAT3, but not other STATs. […]
# T1 sequence (P40763 whole entry): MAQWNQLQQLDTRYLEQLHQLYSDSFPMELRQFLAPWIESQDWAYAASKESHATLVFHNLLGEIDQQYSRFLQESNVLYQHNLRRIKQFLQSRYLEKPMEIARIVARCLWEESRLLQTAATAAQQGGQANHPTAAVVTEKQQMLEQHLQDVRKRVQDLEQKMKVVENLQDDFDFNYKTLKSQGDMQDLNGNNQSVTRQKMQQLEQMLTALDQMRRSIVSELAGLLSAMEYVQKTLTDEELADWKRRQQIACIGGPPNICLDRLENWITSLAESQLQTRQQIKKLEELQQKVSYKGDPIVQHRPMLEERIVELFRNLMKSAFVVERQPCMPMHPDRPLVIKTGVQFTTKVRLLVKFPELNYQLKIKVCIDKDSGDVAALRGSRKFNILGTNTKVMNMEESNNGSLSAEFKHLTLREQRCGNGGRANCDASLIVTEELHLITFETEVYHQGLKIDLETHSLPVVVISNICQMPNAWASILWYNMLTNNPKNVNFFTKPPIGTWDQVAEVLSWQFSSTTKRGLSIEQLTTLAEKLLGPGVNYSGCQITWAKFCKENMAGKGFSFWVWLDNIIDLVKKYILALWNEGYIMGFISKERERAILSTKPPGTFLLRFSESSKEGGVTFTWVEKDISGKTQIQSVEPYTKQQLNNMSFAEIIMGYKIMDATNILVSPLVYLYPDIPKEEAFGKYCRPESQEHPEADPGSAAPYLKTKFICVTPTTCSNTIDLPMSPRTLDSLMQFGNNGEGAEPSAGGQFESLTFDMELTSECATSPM
row,SMILES,levels of pY705 STAT3
1,"O=C(O)CCC(=O)NCc1csc2ccc(Cl)cc12 [SIM-1, 4-[(5-chloro-1-benzothiophen-3-yl)methylamino]-4-oxobutanoic acid]",strongly and selectively suppressed
2,"CCOC(=O)c1c(NC(C)=O)sc2c(Cl)c(/C=N/O)ccc12 [SIM-2, ethyl 2-acetamido-7-chloro-6-(hydroxyiminomethyl)-1-benzothiophene-3-carboxylate]",strongly and selectively suppressed
